Source: PMC10762035, “Molecular basis of human trace amine-associated receptor 1 activation” (Nature Communications, 2024)
Numbering of substitutions follows the chain as printed. Values joined by “and” are separate entries in the source; they are usually repeats but may differ in a detail not shown here. Equal entries are not always repeated.

Columns and labels:
Assay type in all cases: cell-based
hTA1 S107C = biological target: T1, hTA1 S107C (Homo sapiens, UniProt Q96RJ0, S107C); test: GloSensor cAMP accumulation assay, S107C mutant;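 note: cells transiently co-expressing receptor and GloSensor biosensor, luminescence read after 30 min agonist exposure at room temperature, concentration-response fitted by nonlinear regression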
T1 construct: expressed in transfected cells; host or cells: HEK293T
T1 sequence (Q96RJ0 1-339 S107C): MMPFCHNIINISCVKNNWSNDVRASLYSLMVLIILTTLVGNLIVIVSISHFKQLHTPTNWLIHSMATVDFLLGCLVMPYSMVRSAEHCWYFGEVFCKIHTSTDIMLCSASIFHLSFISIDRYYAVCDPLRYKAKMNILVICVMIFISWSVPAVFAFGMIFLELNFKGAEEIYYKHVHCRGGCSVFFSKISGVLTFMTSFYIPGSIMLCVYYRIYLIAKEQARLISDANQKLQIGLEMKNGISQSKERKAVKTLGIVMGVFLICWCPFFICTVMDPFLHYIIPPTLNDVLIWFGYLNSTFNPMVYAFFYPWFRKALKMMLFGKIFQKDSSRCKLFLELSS

hTA1 C178S = biological target: T2, hTA1 C178S (Homo sapiens, UniProt Q96RJ0, C178S); test: GloSensor cAMP accumulation assay, C178S mutant; conditions: for C178S - Normalized Luminescence Counts (N=2): log[Compound], single replicates
T2 construct: expressed in transfected cells; host or cells: HEK293T
T2 sequence (Q96RJ0 1-339 C178S): T1 sequence (Q96RJ0 1-339 S107C) with C107S, C178S

hTA1 C96S = biological target: T3, hTA1 C96S (Homo sapiens, UniProt Q96RJ0, C96S); test: GloSensor cAMP accumulation assay, C96S mutant; conditions: log[Compound]
T3 construct: expressed in transfected cells; host or cells: HEK293T
T3 sequence (Q96RJ0 1-339 C96S): T1 sequence (Q96RJ0 1-339 S107C) with C96S, C107S

hTA1 W264F = biological target: T4, hTA1 W264F (Homo sapiens, UniProt Q96RJ0, W264F); test: GloSensor cAMP accumulation assay, W264F mutant;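 note: cells transiently transfected with receptor plus GloSensor, luminescence read 30 min after agonist addition at room temperature, concentration-response curves fitted by log(agonist) vs response regression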
T4 construct: expressed in transfected cells; host or cells: HEK293T
T4 sequence (Q96RJ0 1-339 W264F): T1 sequence (Q96RJ0 1-339 S107C) with C107S, W264F

hTA1 I290N = biological target: T5, hTA1 I290N (Homo sapiens, UniProt Q96RJ0, I290N); test: GloSensor cAMP accumulation assay, I290N mutant;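 note: cells transiently co-expressing hTA1 and the GloSensor cAMP biosensor, luminescence read 30 min after compound addition at room temperature, efficacy scaled to the maximal β-PEA response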
T5 construct: expressed in transfected cells; host or cells: HEK293T
T5 sequence (Q96RJ0 1-339 I290N): T1 sequence (Q96RJ0 1-339 S107C) with C107S, I290N

[1] = C178S, each row one experiment (N=2), 3 replicates
[2] = hTA1 I290N mutant minus WT average

NCCc1ccccc1 [β-PEA, β-phenethylamine]
ΔEmax values (each mutant value - WT average) (hTA1 S107C; S107C mutant minus WT average): 0 | Emax values, Mean (hTA1 S107C; S107C mutant, β-PEA = 100, each line an independent experiment, 3 replicates): 100 | Span ± SEM (Emax normalized to β-PEA) (hTA1 S107C; S107C, n=2): 100 ± 3.55 | pEC50 ± SEM (hTA1 S107C; S107C, n=2): 6.69 ± 0.71 | EC50 (hTA1 S107C; S107C, n=2, read-out: EC50): 205 nM | pEC50 values, Mean (hTA1 C178S; [1]): 7.235 and 7.223 | ΔpEC50 values (each mutant value - WT average), Mean (hTA1 C178S; [1]): 0.1416 and 0.1292 | Span ± SEM (Emax normalized to β-PEA) (hTA1 C178S; C178S, n=2): 100 ± 2.97 | pEC50 ± SEM (hTA1 C178S; C178S, n=2): 7.23 ± 0.07 | EC50 (hTA1 C178S; C178S, n=2, read-out: EC50): 59 nM | Emax values, Mean (hTA1 C178S; C178S, β-PEA = 100, each row one experiment (N=2), 3 replicates): 100 | C178S - Normalized Luminescence Counts (N=2) (hTA1 C178S; M = -5): 99.3155 and 106.699 and 98.2875 and 86.7589 and 74.9716 and 83.1688 | C178S - Normalized Luminescence Counts (N=2) (hTA1 C178S; M = -5.522): 92.9136 and 85.3902 and 85.0163 and 113.744 and 82.4209 and 115 | C178S - Normalized Luminescence Counts (N=2) (hTA1 C178S; M = -6): 105.577 and 101.792 and 96.652 and 125.741 and 90.4686 and 124.155 | C178S - Normalized Luminescence Counts (N=2) (hTA1 C178S; M = -6.522): 93.1473 and 96.0445 and 75.0162 and 77.2154 and 68.719 and 87.1478 | C178S - Normalized Luminescence Counts (N=2) (hTA1 C178S; M = -7): 68.3806 and 62.1189 and 51.4645 and 64.3212 and 56.124 and 61.3594 | C178S - Normalized Luminescence Counts (N=2) (hTA1 C178S; M = -7.522): 36.8382 and 29.782 and 30.7166 and 32.2204 and 27.7927 and 32.0708 | C178S - Normalized Luminescence Counts (N=2) (hTA1 C178S; M = -8): 16.2772 and 19.3614 and 14.922 and 22.976 and 17.1422 and 19.9245 | C178S - Normalized Luminescence Counts (N=2) (hTA1 C178S; M = -8.522): 3.333 and 3.193 and 2.959 and 9.783 and 5.445 and 7.24 | C178S - Normalized Luminescence Counts (N=2) (hTA1 C178S; M = -9): 1.604 and 3.099 and 1.838 and 2.393 and 2.184 and 1.825 | C178S - Normalized Luminescence Counts (N=2) (hTA1 C178S; M = -9.522): 0.7163 and 0.2957 and -0.07812 and 1.615 and 0.2691 and 1.107 | C178S - Normalized Luminescence Counts (N=2) (hTA1 C178S; M = -10): 1.791 and 0.9967 and 1.277 and -3.171 and -1.3464 and -0.5985 | C178S - Normalized Luminescence Counts (N=2) (hTA1 C178S; M = -10.522): -0.5454 and 0.763 and 0.06206 and -2.244 and -1.825 and -1.7054 | C178S - Normalized Luminescence Counts (N=2) (hTA1 C178S; M = -11): 0.1088 and 0.5294 and -0.07812 and 0.3289 and 0.7777 and -1.376 | C178S - Normalized Luminescence Counts (N=2) (hTA1 C178S; M = -11.522): 1.37 and -0.1716 and -0.2183 and -0.6583 and -1.287 and 0.3289 | C178S - Normalized Luminescence Counts (N=2) (hTA1 C178S; M = -12): -0.7791 and 0.2957 and -0.265 and -2.932 and -0.03006 and 1.645 | C178S - Normalized Luminescence Counts (N=2) (hTA1 C178S; M = -12.522): -0.452 and -1.34 and -0.6856 and -1.915 and -0.9575 and -0.4489 | Normalized Luminescence Counts (hTA1 C96S; C96S, M = -5, single replicates (N=2)): 35.6736 and 42.2638 and 54.1262 and 8.922 and 12.7948 and 20.5413 | Normalized Luminescence Counts (hTA1 C96S; C96S, M = -5.522, single replicates (N=2)): 25.7883 and 20.5161 and 22.4932 and 16.6681 and -2.698 and 8.922 | Normalized Luminescence Counts (hTA1 C96S; C96S, M = -6, single replicates (N=2)): 12.6079 and 10.6308 and 7.995 and -2.698 (2×) and 5.048 | Normalized Luminescence Counts (hTA1 C96S; C96S, M = -6.522, single replicates (N=2)): 0.7455 (2×) and 3.382 and 1.175 and -6.571 (2×) | Normalized Luminescence Counts (hTA1 C96S; C96S, M = -7, single replicates (N=2)): 0.7455 and -1.232 and -0.5726 and -2.698 (2×) and -6.571 | Normalized Luminescence Counts (hTA1 C96S; C96S, M = -7.522, single replicates (N=2)): -0.5726 and -1.891 and 0.08646 and -4.6346 (2×) and -6.571 | Normalized Luminescence Counts (hTA1 C96S; C96S, M = -8, single replicates (N=2)): 2.064 and 0.7455 and -0.5726 and 1.175 and 6.985 and 5.048 | Normalized Luminescence Counts (hTA1 C96S; C96S, M = -8.522, single replicates (N=2)): 2.723 and -1.232 and -1.891 and 6.985 and 1.175 and 8.922 | Normalized Luminescence Counts (hTA1 C96S; C96S, M = -9, single replicates (N=2)): -0.5726 and 0.08646 and -1.232 and 10.8582 and 1.175 and -0.7614 | Normalized Luminescence Counts (hTA1 C96S; C96S, M = -9.522, single replicates (N=2)): 2.064 and -3.209 and -1.232 and -2.698 (2×) and 3.112 | Normalized Luminescence Counts (hTA1 C96S; C96S, M = -10, single replicates (N=2)): 0.08646 and -0.5726 and -1.232 and -8.508 and -2.698 and -0.7614 | Normalized Luminescence Counts (hTA1 C96S; C96S, M = -10.522, single replicates (N=2)): 4.7 and -1.232 and -1.891 and -10.4444 and -0.7614 and -2.698 | Normalized Luminescence Counts (hTA1 C96S; C96S, M = -11, single replicates (N=2)): 2.723 and -0.5726 and 0.7455 and -10.4444 and 3.112 and 1.175 | Normalized Luminescence Counts (hTA1 C96S; C96S, M = -11.522, single replicates (N=2)): 0.08646 and 2.064 and -2.55 and -10.4444 | Normalized Luminescence Counts (hTA1 C96S; M = -11.522, single replicates, mutant block above C178S): -0.6791 and -0.9294 and -0.1556 and 1.551 and 0.7492 and 1.23 | Normalized Luminescence Counts (hTA1 C96S; M = -12, single replicates, mutant block above C178S): -0.6108 and -0.9294 and -0.5425 and 1.07 and 0.8561 and 1.283 | Normalized Luminescence Counts (hTA1 C96S; M = -12.522, single replicates, mutant block above C178S): -0.7929 and -0.6336 and -1.02 and 1.337 and 1.283 and 0.8561 | ΔEmax values (each mutant value - WT average) (hTA1 W264F; W246F mutant (so in the source) minus WT average): 0 | pEC50 values, Mean (hTA1 W264F; W246F mutant (so in the source), each line an independent experiment, 3 replicates): 5.329 and 5.8775 | Emax values, Mean (hTA1 W264F; W246F mutant (so in the source), β-PEA = 100, each line an independent experiment, 3 replicates): 100 | Span ± SEM (Emax normalized to β-PEA) (hTA1 W264F; W264F, n=2): 100 ± 4.75 | pEC50 ± SEM (hTA1 W264F; W264F, n=2): 5.6 ± 0.06 | EC50 (hTA1 W264F; W264F, n=2, read-out: EC50): 2490 nM | Span ± SEM (Emax normalized to β-PEA) (hTA1 I290N; I290N, n=2): 100 ± 2.5 | pEC50 ± SEM (hTA1 I290N; I290N, n=2): 7.26 ± 0.06 | EC50 (hTA1 I290N; I290N, n=2, read-out: EC50): 54.7 nM | cAMP accumulation response, single replicate values (source data, Supplementary Figure 5) (hTA1 I290N; hTA1 I290N (N=2), log[Compound], M = -5): 123.698 and 115.527 and 100.651 and 114.899 | ΔEmax values (each mutant value - WT average), Mean (hTA1 I290N; [2]): 0 | ΔpEC50 values (each mutant value - WT average), Mean (hTA1 I290N; [2]): 0.1524 and 0.1839 | pEC50 values, Mean (hTA1 I290N; hTA1 I290N mutant, Figure 3B source data, each grid row a separate experiment, 3 replicates): 7.2459 and 7.277 | Emax values, Mean (hTA1 I290N; hTA1 I290N mutant, β-PEA set to 100, each grid row a separate experiment, 3 replicates): 100
